{"source": "patent US20200009020A1", "about": "“Caries-Resistant Composite Resin” (Den-Mat Holdings, LLC, priority 2016, published 2020)", "key": {"e. coli": {"tested_on": "e. coli", "assay": "Antimicrobial activity, modified AATCC TM 100-2012 for solid and composite materials", "format": "cell-based", "conditions": "1.0% Wt. Fract. ZnO in a direct filling composite resin", "procedure": "(§1) Zinc oxide has been tested for antimicrobial activity in this invention according to a test that is based upon the International Standard AATCC TM 100-2012. The AATCC TM 100-2012 standard tests for microbial activity on textiles, so the test was modified for use on solid and composite materials.\n(§2) As discussed above, microbial activity is measured using a modified AATCC TM 100-2012 standard for use on solid and composite materials."}, "strep mutans": {"tested_on": "strep mutans", "assay": "Antimicrobial activity, modified AATCC TM 100-2012 for solid and composite materials", "format": "cell-based", "conditions": "1.0% Wt. Fract. ZnO in a direct filling composite resin", "procedure": "as §1, §2"}, "bacteria": {"tested_on": "bacteria", "assay": "Antimicrobial activity, modified AATCC TM 100-2012 (general statement)", "format": "cell-based", "conditions": "modified AATCC TM 100-2012 test", "from_the_text": "as §1"}, "[1]": {"assay": "Translucency of a direct filling composite resin", "format": "physicochemical", "from_the_text": "When zinc oxide is incorporated into a chemical for use in the oral cavity, it is typically incorporated for its function as an opacifying agent and can be added to a product for this function alone. However, there is a limit to the amount that can be added. Resins are esthetic restorative materials and require high translucency to be esthetic. For this reason, the amount of zinc oxide that may be added is limited to less than 0.8 wt. fract. See Table 5 for the upper limits of zinc oxide that can be incorporated into a direct fill composite resin while maintaining high translucency.\nIn Table 5, as the wt. fraction of Zinc Oxide is increased, the opacity also increases to a level that is not considered suitable for use as a dental composite resin for esthetic purposes. For esthetic purposes, the dental composite resin must be sufficiently translucent to mimic the appearance of natural dentin. Beyond this level, the opacity becomes too high and the restoration appears as chalky white."}}}
{"smiles": "[O]=[Zn]", "note": "[Zinc Oxide, zinc oxide]", "values": [{"measurement": "% Reduction of e coli", "setting": "e. coli", "result": 100, "unit": "%"}, {"measurement": "% reduction of strep mutans", "setting": "strep mutans", "result": 100, "unit": "%"}, {"measurement": "antimicrobial activity", "setting": "bacteria", "result": "effective in killing bacteria"}, {"measurement": "Translucency", "setting": "[1]; Wt. Fract. ZnO 0.8 in a direct filling composite resin", "result": "pass"}, {"measurement": "Translucency", "setting": "[1]; Wt. Fract. ZnO 1.0 in a direct filling composite resin", "result": "fail"}]}
